Source: US7371555B2, “Polypeptides having α-H-α-amino acid amide racemase activity and nucleic acids encoding the same” (DSM IP Assets B.V., priority 2002, dated 2008)

What was measured:
[1] = test system: CFE from E. coli DH10B/pOa(1)PLV49B10 combined with the L-aminopeptidase from Pseudomonas putida ATCC 12633; test: Racemase activity test with DL-2-amino-5-[1,3]dioxolan-2-yl-pentanoic acid amide, CFE combined with L-aminopeptidase (Example 12); type: biochemical, Ochrobactrum anthropi IA; Pseudomonas putida ATCC 12633
Protocol: (§1) A reaction mixture of 10 ml (total volume including enzyme preparations) was prepared containing 50 mM HEPES-NaOH, pH 8.0, 20 μM pyridoxal-5-phosphate, 0.4 mg/ml BSA, 1 mM dithiothreitol, and 75 mM of DL-2-aminobutyric acid amide. Reaction was started by the addition of 0.4 ml of the thawed CFE of E. coli DH10B/pOa(1)PLV49B10 and 0.17 ml of a solution containing L-aminopeptidase from P. putida ATCC 12633. The reaction mixture was incubated at 37° C. for 18 h. At certain time intervals samples of 1 ml were taken and transferred to vials containing 1 ml of MeOH to stop the reaction. Analysis of these samples to determine the concentrations L- and D-2-aminobutyric acid and L- and D-2-aminobutyric acid amide was done by HPLC according to the protocol of Example 11.
In a very similar set-up, the combined activity of the α-H-α-amino acid amide racemase from O. anthropi IA and the L-aminopeptidase from P. putida ATCC 12633 was determined towards the more complex substrate DL-2-amino-5-[1,3]dioxolan-2-yl-pentanoic acid amide. The molecular structure of this amide can be found in the substrate table in Example 8. In this experiment 1 ml of the thawed CFE from E. coli DH10B/pOa(1)PLV49B10 was used together with 1 ml of a solution containing L-aminopeptidase from P. putida ATCC 12633. Reaction proceeded for 120 hours. Analysis of these samples to determine the concentrations L- and D-2-amino-5-[1,3]dioxolan-2-yl-pentanoic acid and L- and D-2-amino-5-[1,3]dioxolan-2-yl-pentanoic acid amide was done by HPLC according to the following protocol. • column: Crownether Cr(−) (150 mm×4.0 mm ID) • eluent: Perchloric acid in water, pH=1.0 • flow: 1.2 ml/min. • column temp.: 18° C. • inj. volume: 20 μl • detection: fluorescence detection after post-column reaction with o-phthalaldehyde and 2-mercaptoethanol in 0.4 M borate buffer. (wavelength ex=338 nm and em>420 nm)

[2] = test system: CFE from E. coli DH10B/pOa(1)PLV49B10 combined with the L-aminopeptidase from Pseudomonas putida ATCC 12633; test: Racemase activity test with DL-2-aminobutyric acid amide, CFE combined with L-aminopeptidase (Example 11); type: biochemical, Ochrobactrum anthropi IA; Pseudomonas putida ATCC 12633
Protocol: In this experiment, the E. coli DH10B/pOa(1)PLV49B10 CFE from Example 11 was used. It was combined with a preparation containing the L-aminopeptidase from P. putida ATCC 12633. This is the same L-enantioselective enzyme as was used as L-aminopeptidase help solution in the screening of the O. anthropi IA and A. nicotianae NCIMB 41126 gene libraries (Examples 3 and 3A).
as §1

[3] = test system: CFE from E. coli DH10B/pOa(1)PLV49B10 containing the α-H-α-amino acid amide racemase from O. anthropi IA; test: Racemase activity test with DL-2-aminobutyric acid amide and CFE from E. coli DH10B/pOa(1)PLV49B10 (Example 10); type: biochemical, Ochrobactrum anthropi IA; settings: Strain A; for Conversion: conversion to the L-acid
Protocol: Also in this case, E. coli TOP10/pBAD/Myc-HisC was treated in exactly the same way to serve as negative control.
To determine the activity of the CFE from E. coli DH10B/pOa(1)PLV49B10 and E. coli TOP10/pBAD/Myc-HisC, reaction mixtures of 10 ml each were prepared containing 50 mM HEPES-NaOH, pH 8.0, 20 μM pyridoxal-5-phosphate, 0.4 mg/ml BSA, 1 mM dithiothreitol, and 75 mM of DL-2-aminobutyric acid amide. Reactions were started by the addition of 1 ml of the thawed CFE of E. coli DH10B/pOa(1)PLV49B10 or E. coli TOP10/pBAD/Myc-HisC (blank) and were incubated at 37° C. for 21.5 h. At regular time intervals samples of 1 ml were taken and transferred to vials containing 1 ml of MeOH to stop the reaction. Analysis of these samples to determine the concentrations L- and D-2-aminobutyric acid and L- and D-2-aminobutyric acid amide was done by HPLC according to the following protocol. • column: Sumichiral OA5000 from Sumika (150×4.6 mm I.D., 5μ)+guard column • eluent: 4 mM CuSO4 in water • flow: 1 ml/min. • column temp.: 10° C. • inj. volume: 6 μl • detection: fluorescence detection after post-column reaction with o-phthalaldehyde and 2-mercaptoethanol in 0.4 M borate buffer with addition of EDTA (wavelength ex=338 nm and em>420 nm)

[4] = test system: E. coli DH10B/pOA(1)PLV49B10 cells containing the α-H-α-amino acid amide racemase gene from Ochrobactrum anthropi IA; test: Racemase activity test with DL-leucine amide and whole E. coli cells (Example 6); type: cell-based; settings: Strain A
Protocol: To determine the activity of E. coli/pOA(1)PLV49B10 and the E. coli control, the above-mentioned cell pellets were thawed and resuspended to a total volume of 1 ml with 50 mM HEPES-NaOH buffer, pH 7.7. Then, reaction mixtures of 10 ml each were prepared containing 50 mM HEPES-NaOH buffer (pH 7.7), 10 μM pyridoxal-5-phosphate (PLP), 2.5 wt % of D-leucine amide, if applicable 20 mM of EDTA to suppress the E. coli amidase activity, and 0.5 ml of the E. coli/pOA(1)PLV49B10 and E. coli DH10B/pZErO-GFPuv-wrong-orientation cell suspensions or water (for chemical blanks). Reactions were started by the addition of the cells. Reaction mixtures were incubated at 30° C. and 175 rpm. Directly after addition of the cells (t=0 hours) and after 27 and 43 hours samples were taken in which the reaction was stopped by removal of the cells via centrifugation followed by 0.22 μM filtration. Finally, the filtered samples were stored at −20° C. until analysis by chiral HPLC as described below: • column: Sumichiral OA5000 from Sumika (150×4.6 mm I.D., 5μ)+guard column • eluent: 85 v/v % 2 mM CuSO4+15 v/v % methanol • flow: 1.0 ml/min. • column temp.: 40° C. • inj. volume: 5 μl • detection: fluorescence detection after post-column reaction with o-phthalaldehyde and 2-mercaptoethanol (wavelength ex=338 nm and em>420 nm)
The E. coli DH10B/pOA(1)PLV49B10 and E. coli DH10B/pZErO-GFPuv-wrong-orientation cell suspensions from Example 5 (Preparation of the cells) were used. To determine their activity towards racemic DL-leucine amide, identical reaction mixtures were prepared as in Example 5, except that 2.5 wt % of DL-leucine amide was used, EDTA was omitted in all reactions, and the reactions were started with […] of the cell suspensions. Samples were taken directly after the start of the reactions (t=0 hours) and after 8 and 24 hours.

[5] = test system: lyophilized O. anthropi IA cells; test: α-H-α-amino acid amide racemase activity of lyophilized O. anthropi IA cells; type: biochemical, Ochrobactrum anthropi IA; settings: control experiment
Protocol: O. anthropi IA cells were cultivated in Medium A containing DL-α-amino-ε-caprolactam (2 g/l) as sole nitrogen source. After incubation at 28° C. and 200 rpm for three days (OD620 nm=4.7), cells were harvested by centrifugation, washed in 20 mM HEPES-NaOH buffer of pH 7.7 and lyophilized.
The assay mixture consisted of 10 mM HEPES-NaOH buffer (pH 7.7) containing toluene (2,5 v/v %), pyridoxal-5-phosphate (20 μM), D- or L-leucine amide (2.5 m %) and in some cases EDTA (20 mM). Per assay 150 mg of lyophilized cells were used. Chemical blanks (with the assay mixture without the O. anthropi IA cells) were used as a negative control. All reaction mixtures (including the blanks) were incubated for approximately 72 hours at 40° C. before the reaction was stopped by the addition of 9 volumes of 1 M H3PO4. Finally, the reaction mixtures were analyzed by HPLC to determine the concentrations of D- and L-leucine amide and of D- and L-leucine. o-Phthaldehyde in combination with D-3-mercapto-2-methylpropionic acid was used in this HPLC method as a chiral reagent for the enantioseparation of these amino compounds (Duchateau, et al., J. Chromatogr. (1992) 623:237-245).
In a number of reactions EDTA was added to inhibit L- and/or D-specific amidase(s) present in the O. anthropi IA cells.
Without EDTA, amidases convert the substrate and/or product α-H-α-amino acid amides into α-H-α-amino acids thereby preventing direct detection of the other α-H-α-amino acid amide enantiomer as racemization product. […] Formation of L-leucine from D-leucine amide could not be detected in the chemical blank.

NC(=O)C(N)CCCC1OCCO1 (racemic) [DL-2-amino-5-[1,3]dioxolan-2-yl-pentanoic acid amide]
Conversion ([1]; incubation time 0 h): 5.6%
D-Abu ([1]; incubation time 0 h): 0.0 mM
D-Abu amide ([1]; incubation time 0 h): 36.6 mM
L-Abu ([1]; incubation time 0 h): 4.3 mM
L-Abu amide ([1]; incubation time 0 h): 36.5 mM
Conversion ([1]; incubation time 3.6 h): 49.5%
D-Abu ([1]; incubation time 3.6 h): 0.0 mM
D-Abu amide ([1]; incubation time 3.6 h): 35.7 mM
L-Abu ([1]; incubation time 3.6 h): 37.6 mM
L-Abu amide ([1]; incubation time 3.6 h): 2.7 mM
Conversion ([1]; incubation time 22.1 h): 56.6%
D-Abu ([1]; incubation time 22.1 h): 0.1 mM
D-Abu amide ([1]; incubation time 22.1 h): 29.9 mM
L-Abu ([1]; incubation time 22.1 h): 40.3 mM
L-Abu amide ([1]; incubation time 22.1 h): 1.0 mM
Conversion ([1]; incubation time 53.2 h): 61.1%
D-Abu ([1]; incubation time 53.2 h): 0.1 mM
D-Abu amide ([1]; incubation time 53.2 h): 27.4 mM
L-Abu ([1]; incubation time 53.2 h): 43.5 mM
L-Abu amide ([1]; incubation time 53.2 h): 0.1 mM
D-Abu ([1]; incubation time 120.2 h): 0.4 mM
D-Abu amide ([1]; incubation time 120.2 h): 23.7 mM
L-Abu ([1]; incubation time 120.2 h): 46.0 mM
L-Abu amide ([1]; incubation time 120.2 h): 0.1 mM

CCC(N)C(N)=O (racemic) [DL-2-aminobutyric acid (Abu) amide, DL-2-aminobutyric acid amide]
Conversion ([2]; incubation time 0 h): 0.7%
D-Abu ([2]; incubation time 0 h): 0.0 mM
D-Abu amide ([2]; incubation time 0 h): 36.2 mM
L-Abu ([2]; incubation time 0 h): 0.5 mM
L-Abu amide ([2]; incubation time 0 h): 34.1 mM
Conversion ([2]; incubation time 0.5 h): 17.1%
D-Abu ([2]; incubation time 0.5 h): 0.0 mM
D-Abu amide ([2]; incubation time 0.5 h): 34.6 mM
L-Abu ([2]; incubation time 0.5 h): 11.7 mM
L-Abu amide ([2]; incubation time 0.5 h): 22.2 mM
Conversion ([2]; incubation time 1.0 h): 42.4%
D-Abu ([2]; incubation time 1.0 h): 0.1 mM
D-Abu amide ([2]; incubation time 1.0 h): 36.4 mM
L-Abu ([2]; incubation time 1.0 h): 32.2 mM
L-Abu amide ([2]; incubation time 1.0 h): 7.3 mM
Conversion ([2]; incubation time 1.5 h): 51.9%
D-Abu ([2]; incubation time 1.5 h): 0.0 mM
D-Abu amide ([2]; incubation time 1.5 h): 33.0 mM
L-Abu ([2]; incubation time 1.5 h): 38.5 mM
L-Abu amide ([2]; incubation time 1.5 h): 2.7 mM
Conversion ([2]; incubation time 2.0 h): 56.7%
D-Abu ([2]; incubation time 2.0 h): 0.0 mM
D-Abu amide ([2]; incubation time 2.0 h): 30.4 mM
L-Abu ([2]; incubation time 2.0 h): 41.9 mM
L-Abu amide ([2]; incubation time 2.0 h): 1.7 mM
Conversion ([2]; incubation time 18 h): 97.3%
D-Abu ([2]; incubation time 18 h): 1.6 mM
D-Abu amide ([2]; incubation time 18 h): 0.4 mM
L-Abu ([2]; incubation time 18 h): 70.8 mM
L-Abu amide ([2]; incubation time 18 h): 0.0 mM
D-Abu ([3]; incubation time 0 h): 0.0 mM
D-Abu amide ([3]; incubation time 0 h): 42.3 mM
L-Abu ([3]; incubation time 0 h): 1.4 mM
L-Abu amide ([3]; incubation time 0 h): 40.5 mM
Conversion ([3]; incubation time 0 h): 1.6%
D-Abu ([3]; incubation time 0.75 h): 0.0 mM
D-Abu amide ([3]; incubation time 0.75 h): 39.6 mM
L-Abu ([3]; incubation time 0.75 h): 12.3 mM
L-Abu amide ([3]; incubation time 0.75 h): 29.3 mM
Conversion ([3]; incubation time 0.75 h): 15.2%
D-Abu ([3]; incubation time 2 h): 0.0 mM
D-Abu amide ([3]; incubation time 2 h): 34.7 mM
L-Abu ([3]; incubation time 2 h): 29.1 mM
L-Abu amide ([3]; incubation time 2 h): 17.8 mM
Conversion ([3]; incubation time 2 h): 35.7%
D-Abu ([3]; incubation time 4.65 h): 0.1 mM
D-Abu amide ([3]; incubation time 4.65 h): 20.8 mM
L-Abu ([3]; incubation time 4.65 h): 52.3 mM
L-Abu amide ([3]; incubation time 4.65 h): 11.5 mM
Conversion ([3]; incubation time 4.65 h): 61.8%
D-Abu ([3]; incubation time 8.25 h): 0.5 mM
D-Abu amide ([3]; incubation time 8.25 h): 12.4 mM
L-Abu ([3]; incubation time 8.25 h): 64.9 mM
L-Abu amide ([3]; incubation time 8.25 h): 8.6 mM
Conversion ([3]; incubation time 8.25 h): 75.1%
D-Abu ([3]; incubation time 21.5 h): 1.4 mM
D-Abu amide ([3]; incubation time 21.5 h): 6.7 mM
L-Abu ([3]; incubation time 21.5 h): 71.7 mM
L-Abu amide ([3]; incubation time 21.5 h): 5.8 mM
Conversion ([3]; incubation time 21.5 h): 83.9%

CC(C)CC(N)C(N)=O (racemic) [DL-leucine amide]
D-leucine ([4]; incubation time 0 h): 0.001 wt %
D-leucine amide ([4]; incubation time 0 h): 1.19 wt %
L-leucine ([4]; incubation time 0 h): 0.003 wt %
L-leucine amide ([4]; incubation time 0 h): 1.25 wt %
D-leucine ([4]; incubation time 8 h): 0.004 wt %
D-leucine amide ([4]; incubation time 8 h): 1.24 wt %
L-leucine ([4]; incubation time 8 h): 1.45 wt %
L-leucine amide ([4]; incubation time 8 h): 0.33 wt %
D-leucine ([4]; incubation time 24 h): 0.028 wt %
D-leucine amide ([4]; incubation time 24 h): 0.43 wt %
L-leucine ([4]; incubation time 24 h): 2.25 wt %
L-leucine amide ([4]; incubation time 24 h): 0.14 wt %

CC[C@@H](N)C(N)=O [D-aminobutyric acid amide]
Conversion ([3]; incubation time 21.5 h): 85.4%

CC(C)C[C@H](N)C(=O)O [leucine]
racemization of leucine [5]: did not racemize
